From ChEMBL document CHEMBL3885861, “Open TG-GATES”

Species: Rattus norvegicus
Assay: Open TG-GATES - Regimen: Single
Type: toxicity, organism-based, Sprague-Dawley
Parameters: regimen Single, gender Male, age 6 weeks
Details: in vivo, po, 0 mg/kg, route gavage, dose level Control; for APTT / Bas / Eos / Fbg / Hb / Ht / Lym / MCH / MCHC / MCV / Mono / Neu / PT / Plat / RBC / Ret / WBC: tissue Blood; for KIDNEY_L / KIDNEY_R / KIDNEY_TOTAL: tissue Kidney; for LIVER: tissue Liver; for ALP / ALT / AST / BUN / CRE / DBIL / GLC / K / Na / PL / RALB / TBIL / TC / TG / TP / gamma-GTP: tissue Plasma

With `CN1C(=O)CN=C(c2ccccc2)c2cc(Cl)ccc21` [DIAZEPAM] as the molecule, how does the TERMINAL_BW (3 h) read?
Its TERMINAL_BW is 214.4 g.

What about the APTT (3 h) of the same molecule?
Its APTT is 15.9 s.

And the Bas (3 h)?
Its Bas is 0%.

And the Eos (3 h)?
Its Eos is 1%.

What about the Fbg (3 h) of the same molecule?
The Fbg was 213.4 mg/dL.

What about the Hb (3 h) of the same molecule?
The Hb was 13.5 g/dL.

And the Ht (3 h)?
The Ht was 40.5%.

What about the Lym (3 h) of the same molecule?
The Lym was 71.2%.

And the MCH (3 h)?
Its MCH is 22.3 pg.

What about the MCHC (3 h) of the same molecule?
Its MCHC is 33.3%.

And the MCV (3 h)?
Its MCV is 66.9 fL.

What about the Mono (3 h) of the same molecule?
The Mono was 8.6%.

What about the Neu (3 h) of the same molecule?
Its Neu is 19.6%.

And the PT (3 h)?
Its PT is 12.4 s.

What about the Plat (3 h) of the same molecule?
The Plat was 101 x10_4/uL.

What about the RBC (3 h) of the same molecule?
The RBC was 606 x10_4/ul.

What about the Ret (3 h) of the same molecule?
Its Ret is 8.2%.

What about the WBC (3 h) of the same molecule?
Its WBC is 109.8 x10_2/uL.

What about the KIDNEY_L (3 h) of the same molecule?
Its KIDNEY_L is 1 g.

And the KIDNEY_R (3 h)?
Its KIDNEY_R is 1 g.

What about the KIDNEY_TOTAL (3 h) of the same molecule?
Its KIDNEY_TOTAL is 2 g.

What about the LIVER (3 h) of the same molecule?
Its LIVER is 10.2 g.

And the ALP (3 h)?
Its ALP is 836.4 IU/L.

What about the ALT (3 h) of the same molecule?
The ALT was 31.8 IU/L.

What about the AST (3 h) of the same molecule?
The AST was 66.6 IU/L.

What about the BUN (3 h) of the same molecule?
The BUN was 14.2 mg/dL.

And the CRE (3 h)?
The CRE was 0.5 mg/dL.

And the DBIL (3 h)?
The DBIL was 0.028 mg/dL.

What about the GLC (3 h) of the same molecule?
Its GLC is 187.4 mg/dL.

What about the K (3 h) of the same molecule?
The K was 5.2 meq/L.

What about the Na (3 h) of the same molecule?
The Na was 138.8 meq/L.

And the PL (3 h)?
The PL was 131.6 mg/dL.

And the RALB (3 h)?
The RALB was 3.7 g/dL.

And the TBIL (3 h)?
The TBIL was 0.4 mg/dL.

And the TC (3 h)?
The TC was 71 mg/dL.

And the TG (3 h)?
The TG was 52.2 mg/dL.

And the TP (3 h)?
Its TP is 5.5 g/dL.

And the gamma-GTP (3 h)?
The gamma-GTP was 1.8 IU/L.

And the TERMINAL_BW (6 h)?
The TERMINAL_BW was 213 g.

What about the APTT (6 h) of the same molecule?
Its APTT is 16.6 s.

And the Bas (6 h)?
Its Bas is 0%.

And the Eos (6 h)?
Its Eos is 0.6%.

What about the Fbg (6 h) of the same molecule?
Its Fbg is 216 mg/dL.

What about the Hb (6 h) of the same molecule?
The Hb was 13.8 g/dL.

And the Ht (6 h)?
Its Ht is 41.8%.

And the Lym (6 h)?
The Lym was 77.2%.

What about the MCH (6 h) of the same molecule?
The MCH was 21.4 pg.

And the MCHC (6 h)?
The MCHC was 33.1%.

And the MCV (6 h)?
Its MCV is 64.6 fL.

And the Mono (6 h)?
The Mono was 6.4%.

What about the Neu (6 h) of the same molecule?
Its Neu is 15.8%.

And the PT (6 h)?
Its PT is 12.6 s.

And the Plat (6 h)?
Its Plat is 106.4 x10_4/uL.

What about the RBC (6 h) of the same molecule?
The RBC was 647 x10_4/ul.

And the Ret (6 h)?
Its Ret is 8.5%.

What about the WBC (6 h) of the same molecule?
Its WBC is 105.2 x10_2/uL.

And the KIDNEY_L (6 h)?
The KIDNEY_L was 1 g.

And the KIDNEY_R (6 h)?
Its KIDNEY_R is 1 g.

What about the KIDNEY_TOTAL (6 h) of the same molecule?
Its KIDNEY_TOTAL is 2 g.

And the LIVER (6 h)?
The LIVER was 9.6 g.

And the ALP (6 h)?
The ALP was 878 IU/L.

What about the ALT (6 h) of the same molecule?
Its ALT is 29.6 IU/L.

And the AST (6 h)?
Its AST is 60 IU/L.

What about the BUN (6 h) of the same molecule?
The BUN was 9.8 mg/dL.

What about the CRE (6 h) of the same molecule?
The CRE was 0.5 mg/dL.

And the DBIL (6 h)?
Its DBIL is 0.016 mg/dL.

And the GLC (6 h)?
Its GLC is 203 mg/dL.

What about the K (6 h) of the same molecule?
The K was 4.9 meq/L.

What about the Na (6 h) of the same molecule?
The Na was 138.6 meq/L.

What about the PL (6 h) of the same molecule?
Its PL is 140 mg/dL.

What about the RALB (6 h) of the same molecule?
Its RALB is 3.7 g/dL.

And the TBIL (6 h)?
The TBIL was 0.3 mg/dL.

And the TC (6 h)?
The TC was 74.8 mg/dL.

What about the TG (6 h) of the same molecule?
Its TG is 84.2 mg/dL.

And the TP (6 h)?
Its TP is 5.6 g/dL.

What about the gamma-GTP (6 h) of the same molecule?
Its gamma-GTP is 1.2 IU/L.

What about the TERMINAL_BW (9 h) of the same molecule?
The TERMINAL_BW was 212.8 g.

What about the APTT (9 h) of the same molecule?
Its APTT is 15.7 s.

And the Bas (9 h)?
Its Bas is 0%.

What about the Eos (9 h) of the same molecule?
Its Eos is 0.8%.

And the Fbg (9 h)?
Its Fbg is 215.4 mg/dL.

And the Hb (9 h)?
Its Hb is 13.6 g/dL.

And the Ht (9 h)?
Its Ht is 41.5%.

And the Lym (9 h)?
The Lym was 79.2%.

And the MCH (9 h)?
Its MCH is 21.7 pg.

What about the MCHC (9 h) of the same molecule?
The MCHC was 32.8%.

And the MCV (9 h)?
Its MCV is 66 fL.

What about the Mono (9 h) of the same molecule?
The Mono was 5.6%.

What about the Neu (9 h) of the same molecule?
The Neu was 14.4%.

And the PT (9 h)?
The PT was 12.7 s.

What about the Plat (9 h) of the same molecule?
The Plat was 101.7 x10_4/uL.

And the RBC (9 h)?
The RBC was 628.4 x10_4/ul.

And the Ret (9 h)?
The Ret was 8.2%.

What about the WBC (9 h) of the same molecule?
The WBC was 117.7 x10_2/uL.

What about the KIDNEY_L (9 h) of the same molecule?
Its KIDNEY_L is 1 g.

And the KIDNEY_R (9 h)?
The KIDNEY_R was 1 g.

What about the KIDNEY_TOTAL (9 h) of the same molecule?
Its KIDNEY_TOTAL is 2 g.

And the LIVER (9 h)?
Its LIVER is 9 g.

And the ALP (9 h)?
Its ALP is 712.4 IU/L.

And the ALT (9 h)?
The ALT was 29 IU/L.

What about the AST (9 h) of the same molecule?
The AST was 59.8 IU/L.

And the BUN (9 h)?
Its BUN is 10.6 mg/dL.

And the CRE (9 h)?
Its CRE is 0.6 mg/dL.

What about the DBIL (9 h) of the same molecule?
Its DBIL is 0.038 mg/dL.

What about the GLC (9 h) of the same molecule?
The GLC was 204 mg/dL.

What about the K (9 h) of the same molecule?
The K was 4.8 meq/L.

What about the Na (9 h) of the same molecule?
The Na was 138.6 meq/L.

And the PL (9 h)?
The PL was 130.4 mg/dL.

What about the RALB (9 h) of the same molecule?
The RALB was 3.7 g/dL.

And the TBIL (9 h)?
The TBIL was 0.4 mg/dL.

What about the TC (9 h) of the same molecule?
The TC was 75 mg/dL.

And the TG (9 h)?
The TG was 41.6 mg/dL.

And the TP (9 h)?
Its TP is 5.5 g/dL.

And the gamma-GTP (9 h)?
The gamma-GTP was 1.8 IU/L.

And the TERMINAL_BW (24 h)?
The TERMINAL_BW was 227.4 g.

And the APTT (24 h)?
Its APTT is 16.7 s.

And the Bas (24 h)?
Its Bas is 0%.

And the Eos (24 h)?
Its Eos is 1%.

And the Fbg (24 h)?
The Fbg was 210.2 mg/dL.

What about the Hb (24 h) of the same molecule?
The Hb was 13.7 g/dL.

And the Ht (24 h)?
The Ht was 41%.

And the Lym (24 h)?
The Lym was 81.6%.

And the MCH (24 h)?
Its MCH is 21.9 pg.

What about the MCHC (24 h) of the same molecule?
Its MCHC is 33.4%.

And the MCV (24 h)?
Its MCV is 65.8 fL.

And the Mono (24 h)?
The Mono was 5.8%.

What about the Neu (24 h) of the same molecule?
Its Neu is 12.2%.

And the PT (24 h)?
Its PT is 12.2 s.

And the Plat (24 h)?
The Plat was 108.9 x10_4/uL.

And the RBC (24 h)?
Its RBC is 624.2 x10_4/ul.

What about the Ret (24 h) of the same molecule?
Its Ret is 7.7%.

And the WBC (24 h)?
Its WBC is 114.5 x10_2/uL.

And the KIDNEY_L (24 h)?
Its KIDNEY_L is 1.1 g.

What about the KIDNEY_R (24 h) of the same molecule?
The KIDNEY_R was 1 g.

And the KIDNEY_TOTAL (24 h)?
Its KIDNEY_TOTAL is 2.1 g.

And the LIVER (24 h)?
Its LIVER is 11.2 g.

What about the ALP (24 h) of the same molecule?
Its ALP is 817.8 IU/L.

What about the ALT (24 h) of the same molecule?
Its ALT is 33.4 IU/L.

And the AST (24 h)?
Its AST is 58.4 IU/L.

And the BUN (24 h)?
Its BUN is 15.2 mg/dL.

And the CRE (24 h)?
The CRE was 0.5 mg/dL.

What about the DBIL (24 h) of the same molecule?
The DBIL was 0.006 mg/dL.

What about the GLC (24 h) of the same molecule?
The GLC was 191.2 mg/dL.

What about the K (24 h) of the same molecule?
Its K is 5.1 meq/L.

And the Na (24 h)?
The Na was 138.6 meq/L.

And the PL (24 h)?
Its PL is 131.8 mg/dL.

What about the RALB (24 h) of the same molecule?
The RALB was 3.9 g/dL.

And the TBIL (24 h)?
Its TBIL is 0.3 mg/dL.

And the TC (24 h)?
Its TC is 63.2 mg/dL.

What about the TG (24 h) of the same molecule?
Its TG is 112.8 mg/dL.

What about the TP (24 h) of the same molecule?
Its TP is 5.8 g/dL.

And the gamma-GTP (24 h)?
Its gamma-GTP is 1 IU/L.
